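Test compounds were applied to cells in 96-well plates for 48 hours at 5 doses. Abbreviation: GI50, concentration required for 50% inhibition of growth. The concentration for full growth arrest is given as TGI.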
What was measured:
Assay in all cases: inhibition of tumour cell growth, NCI panel, 48 h
PC-3 prostate = system: PC-3 prostate
MDA-MB-435 = system: MDA-MB-435
MCF7 breast = system: MCF7 breast
BT-549 breast = system: BT-549 breast
MDA-MB-231 breast = system: MDA-MB-231 breast
DMS 273 small cell lung = system: DMS 273 small cell lung
LXFL 529 NSCLC = system: LXFL 529 NSCLC
DMS 114 small cell lung = system: DMS 114 small cell lung
DLD-1 colon = system: DLD-1 colon

Structure (SMILES) | TGI (PC-3 prostate) | TGI (MDA-MB-435) | TGI (MCF7 breast) | TGI (BT-549 breast) | GI50 (PC-3 prostate) | GI50 (MDA-MB-231 breast) | TGI (MDA-MB-231 breast) | GI50 (MDA-MB-435) | GI50 (MCF7 breast) | GI50 (BT-549 breast) | TGI (DMS 273 small cell lung) | TGI (LXFL 529 NSCLC) | TGI (DMS 114 small cell lung) | TGI (DLD-1 colon)
CCCCCCCCCCCCCCCCCc1cc(Cl)nc(Cl)n1 | > 100 µM | > 100 µM | > 100 µM | > 100 µM |  |  |  |  |  |  |  |  |  | 
COc1ccc2c(c1)O/C(=C\c1ccc([N+](=O)[O-])o1)C2=O | > 25.5 µM | 3.49 µM | 3.12 µM | 3.07 µM | 2140 nM | 2030 nM | 6.63 µM | 1610 nM | 345 nM | 1560 nM |  |  |  | 
CCCCN1C(=O)C2c3[nH]c4ccccc4c3C3CCCCC3C2C1=O (mixture of isomers) |  |  |  |  |  |  |  |  |  |  | 23.5 µM | 29.1 µM | 44.6 µM | > 100 µM
CCN(CC)c1ccc(CNc2cc(C)nc3ccc(OC)cc23)cc1 | 13.1 µM | 3.38 µM | 3.53 µM | 10.7 µM | 2820 nM | 2460 nM | 6.81 µM | 1670 nM | 1700 nM | 3220 nM |  |  |  | 
O=C(NCCN1CCOCC1)Nc1nc2ccc(Sc3nnc4ccc(-c5ccc(F)cc5)nn34)cc2s1 | > 100 µM | > 100 µM | > 100 µM | > 27.8 µM | > 100000 nM | 3000 nM | > 21.6 µM |  |  | 2620 nM |  |  |  | 
CC[C@]12C=CCN3CC[C@@]4(c5ccc(OC)cc5N(C)[C@H]4[C@@](O)(C(=O)OC)[C@@H]1OC(=O)CCCC[P+](c1ccccc1)(c1ccccc1)c1ccccc1)[C@@H]32 | 7.77 µM | 1.31 µM | 5.3 µM | 1.94 µM | 391 nM | 414 nM | 1.9 µM | 359 nM | 320 nM | 465 nM |  |  |  | 
COC1=CC(=O)c2c(O)c3c(c(O)c2C1=O)OC1(Oc2c(cc4cc(C)oc(=O)c4c2O)CC1O)C3O (configuration not stated) | > 100 µM | > 100 µM | > 100 µM |  |  |  | 54.5 µM |  |  |  |  |  |  | 
COc1ccccc1CN=C1NC(=O)/C(=C/c2ccc3ncccc3c2)S1 | > 25 µM | > 21.3 µM | > 25 µM | 14 µM | 18500 nM | 11200 nM | > 25 µM | 6020 nM | 5400 nM | 5180 nM |  |  |  | 
O=C1/C(=N/N=C(c2ccccc2)c2ccccc2)c2ccccc2-c2ccccc21 | > 100 µM | > 100 µM | > 100 µM | > 100 µM |  |  | > 100 µM |  |  |  |  |  |  | 
O=c1/c(=C/c2ccccc2O)sc2nc3ccccc3n12 |  |  |  |  |  |  |  |  |  |  | > 100 µM | > 100 µM | 47.5 µM | > 100 µM
Cc1cc(C)nc(NS(=O)(=O)c2ccc(Nc3nc4nc(NCc5ccccc5)nc(-c5ccc(O)cc5)c4c(=O)[nH]3)cc2)n1 | > 100 µM | > 100 µM | 56.8 µM | 52.9 µM | 19800 nM | 29600 nM | > 100 µM | 21300 nM | 9580 nM | 10800 nM |  |  |  | 
CC(=O)CC(=O)ON(C)C(C)=O |  |  |  |  |  |  |  |  |  |  | > 100 µM | > 100 µM | > 100 µM | > 100 µM
C/C(=N\NC(=O)C[n+]1ccccc1)c1sc(-c2nc(C)c(/C(C)=N/NC(=O)C[n+]3ccccc3)s2)nc1C |  |  |  |  |  |  |  |  |  |  |  | > 100 µM | > 100 µM | > 100 µM
Nc1nc(=O)c2[nH]cnc2n1O | > 100 µM |  | > 100 µM | > 100 µM |  |  | > 100 µM |  |  |  |  |  |  | 
Cc1cc(NCCCNc2ccnc3cc(Cl)ccc23)nc(Nc2ccc(C(=O)N3CCCCC3)cc2)n1 | 14.4 µM | 3.2 µM | 4.09 µM | 5.43 µM | 3900 nM |  |  | 1710 nM | 1820 nM | 2310 nM |  |  |  | 
O=c1[nH]ccc2nc(N3CCC(O)CC3)nc(Nc3ccc(N4CCOCC4)cc3)c12 | > 100 µM | > 100 µM | > 100 µM | > 46.5 µM | > 100000 nM | 7410 nM | > 100 µM | 744 nM | 4450 nM | 2310 nM |  |  |  | 
COc1ccc(-c2cc(=O)c3c(OC)c(O)c(OC)cc3o2)cc1 |  | > 100 µM | > 100 µM | > 100 µM |  |  | > 100 µM |  |  |  |  |  |  | 
O=C(/C=C/c1ccccc1)Nc1ncc(Cc2ccccc2)s1 | > 100 µM | 0.1 µM | > 100 µM | > 100 µM | 275 nM | 415 nM | 9.28 µM | 28.6 nM | 139 nM | 1170 nM |  |  |  | 
O=c1ncc(I)c[nH]1 | > 100 µM | > 100 µM | > 100 µM | > 100 µM | > 100000 nM | > 100000 nM | > 100 µM | > 100000 nM | > 100000 nM | > 100000 nM |  |  |  | 
Cc1ccc(C(=O)Nc2ccc(CN3CCN(C)CC3)c(C(F)(F)F)c2)cc1C#Cc1cnc(N)c2ccc(C#N)cc12 | 13.8 µM | 1.65 µM | 29.6 µM | > 50 µM | 2090 nM | 230 nM | 2.02 µM | 25.9 nM | 4210 nM | 10100 nM |  |  |  | 
COc1ccc(-c2c(-c3cc4c(c(OC)c3OC)OCO4)noc2N)cc1 | > 100 µM |  | > 77.5 µM | 17 µM | 321 nM | 2320 nM | > 62.9 µM |  | 282 nM | 507 nM |  |  |  | 
COc1ccc2c3c(ccc2c1)NC(C(=O)O)CC3 (configuration not stated) | > 100 µM | > 100 µM | > 100 µM | > 100 µM |  |  | > 100 µM |  |  |  |  |  |  | 
C/C(=N\NC(=O)c1cccc(S(=O)(=O)N2CCN(C)CC2)c1)c1cc(Cl)ccc1O | > 100 µM | > 100 µM | > 100 µM | 36 µM | 1180 nM | 667 nM | > 100 µM | 2740 nM | 423 nM | 1940 nM |  |  |  | 
C[C@@]1([C@H](OC(=O)c2cccc3ccccc23)C(N)=O)CO1 | 22.8 µM | 1.74 µM | > 100 µM | 21.8 µM | 3200 nM | 1270 nM | 9.12 µM |  | 1240 nM | 6150 nM |  |  |  | 
CN(C)c1ccc(/C=N/NC(=O)CSc2nc3sc4c(c3c(=O)n2-c2ccccc2)CCCCC4)cc1 |  | > 100 µM | > 100 µM | > 100 µM |  | 2890 nM | 18 µM | 5070 nM | 4700 nM | 16100 nM |  |  |  | 

— PubChem BioAssay (NCI)
